The source of these data is patent publication US12298308B2, “Neoadjuvant chemotherapy induces breast cancer metastasis through a TMEM-mediated mechanism” (Albert Einstein College of Medicine, priority 2017, dated 2025).

In assay [1] the test system is Tie2^hi/Vegf^hi macrophages. Description: Macrophage infiltration by multi-channel immunofluorescence (Iba1, Cd31, Tie2, Vegf). It counts as in vivo, mouse. An excerpt:
The functional TMEM sites contain Tie2^hi/Vegf^hi macrophages and invasive tumor cells in perivascular regions (1), and it was independently shown that chemotherapy may promote mobilization of such Tie2^hi monocyte progenitors in primary tumors (8, 10). The Tie2^hi/Vegf^hi macrophage subpopulation was quantified herein using multi-channel immunofluorescence (IF) imaging (FIGS. 1D-F) (10, 14, 34). FIG. 1E illustrates a representative IF image of a Tie2^hi/Vegf^hi macrophage quantified using Cd31, Iba1, Vegf and Tie2 staining.
(§1) Drug Administration. The following drugs were administered in mice: Paclitaxel was given at 10 mg/Kg i.v every 5 days for 2 weeks; Doxorubicin was given at 5 mg/Kg i.v. every 5 days for 2 weeks; Cyclophosphamide was given at 120 mg/Kg i.p. only once; Rebastinib was given at 10 mg/Kg per os, every 3-4 days for 4 weeks.
Animals and Animal Procedures. MMTV-PyMT mice were bred in-house at the Albert Einstein College of Medicine (AECOM). Generation of MMTV-PyMT Mena^−/− has been described previously (28). CFP- or Dendra2-labeled mammary carcinoma cells were generated on the FVB background by co-injection of Tg(MMTV-iCRE)1jwp together with Tg(PCAG-loxp-CATstop-loxp-CFP) or Tg(loxP-stop-loxP-PDendra2)jwp plasmids, respectively, by conventional methods in the Albert Einstein Transgenic Mouse Facility. All syngeneic transplantation models were generated through orthotopic transplantation of 1 mm×1 mm tumor chunks, using tumors of 1 cm-diameter from 12-16-week old MMTV-PyMT mena−/− or mena+/+ donor mice into 5-6 week-old FVB recipients. Tumor chunks were implanted on the fourth mammary pad on the left side. The generation of the ER^− HT17 and ER^+ HT33 patient-derived xenografts has been described previously (31). Animal handling and associated procedures were approved by the Institutional Animal Care and Use Committee (IACUC). Additional information is detailed in Supplementary Methods.
Immunofluorescence. Slides were deparaffinized by melting at 60° C. in an oven equipped with a fan for 20 minutes, followed by 2× xylene treatment for 20 minutes. Slides were rehydrated and antigen retrieval was done in 1 mM EDTA (pH 8.0) or 1× citrate buffer (pH 6.0) (Diagnostic BioSystems) at 97° C. for 20 minutes in a conventional steamer. Endogenous peroxidase was blocked by using 0.3% hydrogen peroxide in water, followed by incubation of slides in a blocking buffer solution (10% FBS, 1% BSA, 0.0025% fish skin gelatin in 0.05% PBST) for 60 minutes at room temperature. The following primary antibodies were used in different combinations, depending on the experiment: chicken anti-Mena^INV (0.25 ug/mL, generated in-house in the lab of John S. Condeelis), rabbit anti-Cd31 (1:400; 77699s; Cell Signaling), rabbit anti-Vegf (1:2,000; Rb 9031-PO-A; Thermo), rat anti-Tie2 (1:100; 16-5987-82; eBioscience), rabbit anti-Iba1 (1:6,000; 019-19741; Wako), rat anti-endomucin (1:500; sc-65495; Santa Cruz), rabbit anti-TMR (1:1,000; A-6397; Life Technologies). Secondary antibody treatment was performed using HRP-conjugated antibodies, and was followed by tyramide signal amplification (TSA), using the Perkin Elmer; Opal™ 4-color Fluorescent IHC kit, according to the manufacturer's directions. All slides were imaged on the Pannoramic 250 Flash II digital whole slide scanner, using a 20×0.75NA objective lens. Image analysis was performed in ImageJ, detailed in Supplementary Methods.

A further assay deals with circulating tumor cells. Description: Circulating tumor cells per mL of blood. Format: in vivo, mouse. As for the experimental part: as §1
Circulating Tumor Cells. Mice were anesthetized with 3.5-4.5% isoflurane, and blood was taken from the right ventricle by heart puncture, using 25G needles coated with heparin. Erythrocytes were lysed, using 10 ml of 1×RBC lysis buffer (multi-species, eBioscience). Cancer cells were quantified, as previously described (31, 60).

A further assay concerns MDA-MB-213 xenografts. The note with it: paclitaxel-treated vs control MDA-MB-213 xenografts; cited from earlier work.
A further assay has as its system Mena^INV. The experiment in a line: Mena^INV expression before and after NAC or paclitaxel in breast cancer patients. The note with it: qRT-PCR in FNA biopsies before and one week after second dose of weekly paclitaxel; n=5. It counts as in vivo, human. An excerpt:
To further substantiate the translational importance of our preclinical data from PyMT and PDX mice receiving neoadjuvant paclitaxel into human breast cancer patients, we compared Mena^INV expression levels in Pre- and Post-NAC samples. […] Additionally, we analyzed Mena^INV expression by qRT-PCR in fine needle aspiration (FNA) biopsies taken before and one week after the second dose of weekly paclitaxel in an independent small cohort of patients (n=5).
Immunofluorescence. Slides were deparaffinized by melting at 60° C. in an oven equipped with a fan for 20 minutes, followed by 2× xylene treatment for 20 minutes. Slides were rehydrated and antigen retrieval was done in 1 mM EDTA (pH 8.0) or 1× citrate buffer (pH 6.0) (Diagnostic BioSystems) at 97° C. for 20 minutes in a conventional steamer. Endogenous peroxidase was blocked by using 0.3% hydrogen peroxide in water, followed by incubation of slides in a blocking buffer solution (10% FBS, 1% BSA, 0.0025% fish skin gelatin in 0.05% PBST) for 60 minutes at room temperature. […]
(In general: In qPCR the cycle at which signal appears reflects the starting amount.)

In a further assay the test system is breast cancer. The note with it: addition of paclitaxel into preoperative NAC regimen; cited from earlier work.
[2] abbreviates: Mena^-/- PyMT-CFP transplanted tumors.
The mark [3] stands for this setting: single agent vs vehicle, PyMT-transplantation and HT17 xenograft.

For the compound `CC(=O)O[C@H]1C(=O)[C@@]2(C)[C@H]([C@H](OC(=O)c3ccccc3)[C@]3(O)C[C@H](OC(=O)[C@H](O)[C@@H](NC(=O)c4ccccc4)c4ccccc4)C(C)=C1C3(C)C)[C@]1(OC(C)=O)CO[C@@H]1C[C@@H]2O` [paclitaxel], in assay [1] (HT17-xenograft, entire tissue or perivascular niche, p<0.001), the “absolute number of Iba1^+ cells” value is “significantly increased”. For the same compound, in assay [1] (setting [2]), the “perivascular Iba1^+ macrophage infiltration” value is given as “increased” and the “perivascular Tie2^hi/Vegf^hi Iba1^+ macrophage infiltration” value is “increased”. Besides, in assay [1] (PyMT-spontaneous model), the “perivascular Tie2^hi/Vegf^hi macrophage subpopulation” value was “significant increase”. For the same compound, the “percentage of macrophage-specific Iba1^+ area” value in assay [1] (all transplantation models, p<0.01) is “significant increase”. The “proportion of Tie2^hi/Vegf^hi macrophages among all Iba1^+ cells” value in assay [1] (paclitaxel treatment) is reported as “increased”. For the same compound, in assay [1] (setting [3]), the “density of perivascular Tie2^hi/Vegf^hi macrophages” value is on record as “significant increases”. Further, the “density of Tie2^hi/Vegf^hi macrophages” value in assay [1] (vs vehicle-treated controls, entire tissue or perivascular niches, p<0.001) is listed as “significantly higher”. Moreover, the “number of CTCs in the blood” value in the assay on circulating tumor cells (Mena^-/- PyMT-CFP transplants) is “failed to boost”. For the same compound, the “increase in circulating tumor cells (CTCs)” value in the assay on circulating tumor cells (all experimental models examined, p<0.05) is reported as “at least 2 fold”. The “number of CTCs (TMEM activity)” value in the assay with circulating tumor cells (setting [3]) is on record as “significant increases”. Moreover, in the assay with MDA-MB-213 xenografts, the Mena expression result is recorded as “significantly increased” and the “Mena^INV expression” value was “significantly increased”. Besides, the “patients with increase of Mena^INV gene-expression” value in the assay with Mena^INV is recorded as 4/5. For the same compound, in the assay with breast cancer, the overall survival entry is “does not improve” and the “rate of pathologic complete response (pCR)” value is listed as “significantly increases”.
